Measured values taken from patent publication US6713455B2, “6-O-carbamate-11,12-lacto-ketolide antimicrobials” (Ortho-McNeil Pharmaceutical, Inc., priority 2001, dated 2004).
Values after ≈ are worked out from the molar mass of the structure shown.

Tests used:
Assay in all cases: MIC, microdilution broth method (NCCLS)
Type in all cases: cell-based
H. influenzae ATCC49247 = conditions: 35° C., 16-20 hours; for MIC: Haemophilus influenzae
Experimental: (§1) Minimal inhibitory concentration (MIC) has been an indicator of in vitro antibacterial activity widely used in the art. The in vitro antimicrobial activity of the compounds was determined by the microdilution broth method following the test method from the National Committee for Clinical Laboratory Standards (NCCLS). This method is described in the NCCLS Document M7-A4, Vol.17, No.2, “Methods for Dilution Antimicrobial Susceptibility Test for Bacteria that Grow Aerobically—Fourth Edition”, which is incorporated herein by reference.
(§2) In this method two-fold serial dilutions of drug in cation adjusted Mueller-Hinton broth are added to wells in microdilution trays. The test organisms are prepared by adjusting the turbidity of actively growing broth cultures so that the final concentration of test organism after it is added to the wells is approximately 5×10^4 CFU/well.
(§3) Following inoculation of the microdilution trays, the trays are incubated at 35° C. for 16-20 hours and then read. […] The amount of growth in the wells containing the test compound is compared with the amount of growth in the growth-control wells (no test compound) used in each tray. As set forth in Table 1, compounds of the present invention were tested against a variety of Gram positive and Gram negative pathogenic bacteria resulting in a range of activities depending on the organism tested.

E. faecalis ATCC29212 = conditions: 35° C., 16-20 hours; for MIC: Enterococcus faecalis
Experimental: as §1, §2, §3

S. pneumoniae ATCC49619 = conditions: 35° C., 16-20 hours; for MIC: Streptococcus pneumoniae
Experimental: as §1, §2, §3

S. aureus ATCC29213 = conditions: 35° C., 16-20 hours; for MIC: Staphylococcus aureus
Experimental: as §1, §2, §3

E. coli OC2605 = conditions: 35° C., 16-20 hours; for MIC: Escherichia coli
Experimental: as §1, §2, §3

SMILES	MIC (μg/mL) E (H. influenzae ATCC49247) [µg/mL]	MIC (μg/mL) C (E. faecalis ATCC29212) [µg/mL]	MIC (μg/mL) D (S. pneumoniae ATCC49619) [µg/mL]	MIC (μg/mL) B (S. aureus ATCC29213) [µg/mL]	MIC (μg/mL) A (E. coli OC2605) [µg/mL]	MIC (H. influenzae ATCC49247) [µg/mL]	MIC (E. faecalis ATCC29212) [µg/mL]	MIC (S. pneumoniae ATCC49619) [µg/mL]	MIC (S. aureus ATCC29213) [µg/mL]	MIC (E. coli OC2605) [µg/mL]
CCC1OC(=O)C(C)C(=O)C(C)C(OC2OC(C)CC(N(C)C)C2O)C(C)(OC(N)=O)CC(C)C(=O)C(C)C2CC(=O)OC12C (centres unmarked) [Compound 1]	>16	2 (≈ 3.12 µM)	0.5 (≈ 0.78 µM)	8 (≈ 12.5 µM)	>16	–	–	–	–	–
CCC1OC(=O)C(C)C(=O)C(C)C(OC2OC(C)CC(N(C)C)C2O)C(C)(OC(=O)NCc2ccc(-c3cncnc3)cc2)CC(C)C(=O)C(C)C2CC(=O)OC12C (centres unmarked) [Compound 2]	16 (≈ 19.8 µM)	0.12 (≈ 0.148 µM)	0.06 (≈ 0.0742 µM)	1 (≈ 1.24 µM)	>16	–	–	–	–	–
CCC1OC(=O)C(C)C(=O)C(C)C(OC2OC(C)CC(N(C)C)C2O)C(C)(OC(=O)NCc2ccc3ncccc3c2)CC(C)C(=O)C(C)C2CC(=O)OC12C (centres unmarked) [Compound 3]	8 (≈ 10.2 µM)	0.25 (≈ 0.32 µM)	0.06 (≈ 0.0767 µM)	1 (≈ 1.28 µM)	>16	–	–	–	–	–
CCC1OC(=O)C(C)C(=O)C(C)C(OC2OC(C)CC(N(C)C)C2O)C(C)(OC(=O)NCc2ccc(C(=O)O)cc2)CC(C)C(=O)C(C)C2CC(=O)OC12C (centres unmarked) [Compound 4]	>16	8 (≈ 10.3 µM)	1 (≈ 1.29 µM)	>16	>16	–	–	–	–	–
CCC1OC(=O)C(C)C(=O)C(C)C(OC2OC(C)CC(N(C)C)C2O)C(C)(OC(=O)NCC=Cc2cnc3ccccc3c2)CC(C)C(=O)C(C)C2CC(=O)OC12C (centres unmarked) [Compound 5]	16 (≈ 19.8 µM)	0.06 (≈ 0.0743 µM)	0.03 (≈ 0.0371 µM)	0.5 (≈ 0.619 µM)	16 (≈ 19.8 µM)	–	–	–	–	–
CCC1OC(=O)C(C)C(=O)C(C)C(OC2OC(C)CC(N(C)C)C2O)C(C)(OC(=O)NCC=Cc2ccc(-c3ccccn3)cc2)CC(C)C(=O)C(C)C2C(OC)C(=O)OC12C (centres unmarked) [Compound 6]	8 (≈ 9.26 µM)	1 (≈ 1.16 µM)	0.25 (≈ 0.289 µM)	1 (≈ 1.16 µM)	>16	–	–	–	–	–
CC[C@H]1OC(=O)[C@H](C)C(=O)[C@H](C)[C@@H](OC2O[C@H](C)C[C@H](N(C)C)[C@H]2O)[C@](C)(OC(=O)NC/C=C/c2ccc(-c3ncccn3)cc2)C[C@@H](C)C(=O)C(C)C2CC(=O)O[C@@]21C (some centres unmarked) [Compound 7]	–	–	–	–	–	8 (≈ 9.58 µM)	0.12 (≈ 0.144 µM)	0.06 (≈ 0.0719 µM)	0.25 (≈ 0.299 µM)	> 16
CCC1OC(=O)C(C)C(=O)C(C)C(OC2OC(C)CC(N(C)C)C2O)C(C)(OC(=O)NCC=Cc2ccc(-c3cncnc3)cc2)CC(C)C(=O)C(C)C2CC(=O)OC12C (centres unmarked) [Compound 9]	8 (≈ 9.58 µM)	0.25 (≈ 0.299 µM)	0.06 (≈ 0.0719 µM)	0.5 (≈ 0.599 µM)	>16	–	–	–	–	–
CCC1OC(=O)C(C)C(=O)C(C)C(OC2OC(C)CC(N(C)C)C2O)C(C)(OC(=O)NCC=Cc2ccc3cccnc3c2)CC(C)C(=O)C(C)C2C(OC)C(=O)OC12C (centres unmarked) [Compound 10]	8 (≈ 9.55 µM)	0.5 (≈ 0.597 µM)	0.12 (≈ 0.143 µM)	1 (≈ 1.19 µM)	>16	–	–	–	–	–
CCC1OC(=O)C(C)C(=O)C(C)C(OC2OC(C)CC(N(C)C)C2O)C(C)(OC(=O)NCC=Cc2cncc(-c3ccccn3)c2)CC(C)C(=O)C(C)C2CC(=O)OC12C (centres unmarked) [Compound 11]	4 (≈ 4.79 µM)	0.12 (≈ 0.144 µM)	0.06 (≈ 0.0719 µM)	0.5 (≈ 0.599 µM)	>16	–	–	–	–	–
CCC1OC(=O)C(C)C(=O)C(C)C(OC2OC(C)CC(N(C)C)C2O)C(C)(OC(=O)N(CC=Cc2cncc(-c3ccccn3)c2)CC=Cc2cncc(-c3ccccn3)c2)CC(C)C(=O)C(C)C2CC(=O)OC12C (centres unmarked) [Compound 12]	16 (≈ 15.5 µM)	0.5 (≈ 0.486 µM)	0.12 (≈ 0.117 µM)	2 (≈ 1.94 µM)	>16	–	–	–	–	–
CCC1OC(=O)C(C)C(=O)C(C)C(OC2OC(C)CC(N(C)C)C2O)C(C)(OC(=O)NCC=Cc2cccc(-c3ccccn3)c2)CC(C)C(=O)C(C)C2CC(=O)OC12C (centres unmarked) [Compound 13]	4 (≈ 4.8 µM)	0.25 (≈ 0.3 µM)	0.06 (≈ 0.0719 µM)	1 (≈ 1.2 µM)	>16	–	–	–	–	–
CCC1OC(=O)C(C)C(=O)C(C)C(OC2OC(C)CC(N(C)C)C2O)C(C)(OC(=O)NCC=Cc2cccc(-c3cccnc3)c2)CC(C)C(=O)C(C)C2CC(=O)OC12C (centres unmarked) [Compound 14]	8 (≈ 9.59 µM)	0.5 (≈ 0.6 µM)	0.12 (≈ 0.144 µM)	2 (≈ 2.4 µM)	>16	–	–	–	–	–
CCC1OC(=O)C(C)C(=O)C(C)C(OC2OC(C)CC(N(C)C)C2O)C(C)(OC(=O)NCC=Cc2ccc(-c3ccccn3)cc2)CC(C)C(=O)C(C)C2CC(=O)OC12C (centres unmarked) [Compound 15]	8 (≈ 9.59 µM)	0.25 (≈ 0.3 µM)	0.12 (≈ 0.144 µM)	1 (≈ 1.2 µM)	>16	–	–	–	–	–
CC[C@H]1OC(=O)[C@H](C)C(=O)[C@H](C)[C@@H](O[C@@H]2O[C@H](C)C[C@H](N(C)C)[C@H]2O)[C@](C)(OC(=O)NC/C=C/c2ccc(-n3cnnc3)cc2)C[C@@H](C)C(=O)C(C)[C@H]2CC(=O)O[C@@]21C (some centres unmarked) [Compound 16]	4 (≈ 4.85 µM)	0.25 (≈ 0.303 µM)	0.06 (≈ 0.0728 µM)	0.5 (≈ 0.607 µM)	16 (≈ 19.4 µM)	–	–	–	–	–
CC[C@H]1OC(=O)[C@H](C)C(=O)[C@H](C)[C@@H](OC2O[C@H](C)C[C@H](N(C)C)[C@H]2O)[C@](C)(OC(=O)NC/C=C/c2cn(-c3cnccn3)cn2)C[C@@H](C)C(=O)C(C)C2CC(=O)O[C@@]21C (some centres unmarked) [Compound 17]	–	–	–	–	–	4 (≈ 4.85 µM)	0.12 (≈ 0.145 µM)	0.06 (≈ 0.0727 µM)	0.5 (≈ 0.606 µM)	> 16
CCC1OC(=O)C(C)C(=O)C(C)C(OC2OC(C)CC(N(C)C)C2O)C(C)(OC(=O)NCC#Cc2cccnc2)CC(C)C(=O)C(C)C2CC(=O)OC12C (centres unmarked) [Compound 18]	8 (≈ 10.6 µM)	0.5 (≈ 0.661 µM)	0.12 (≈ 0.159 µM)	2 (≈ 2.65 µM)	>16	–	–	–	–	–
CCC1OC(=O)C(C)C(=O)C(C)C(OC2OC(C)CC(N(C)C)C2O)C(C)(OC(=O)NCc2ccccc2)CC(C)C(=O)C(C)C2CC(=O)OC12C (centres unmarked) [Compound 19]	>16	1 (≈ 1.37 µM)	0.25 (≈ 0.342 µM)	16 (≈ 21.9 µM)	>16	–	–	–	–	–
CCC1OC(=O)C(C)C(=O)C(C)C(OC2OC(C)CC(N(C)C)C2O)C(C)(OC(=O)NCc2ccc(Br)cc2)CC(C)C(=O)C(C)C2CC(=O)OC12C (centres unmarked) [Compound 20]	16 (≈ 19.8 µM)	0.5 (≈ 0.617 µM)	0.12 (≈ 0.148 µM)	2 (≈ 2.47 µM)	>16	–	–	–	–	–
CCC1OC(=O)C(C)C(=O)C(C)C(OC2OC(C)CC(N(C)C)C2O)C(C)(OC(=O)NCc2ccc(C=Cc3ccccc3)cc2)CC(C)C(=O)C(C)C2CC(=O)OC12C (centres unmarked) [Compound 21]	8 (≈ 9.6 µM)	1 (≈ 1.2 µM)	0.25 (≈ 0.3 µM)	2 (≈ 2.4 µM)	>16	–	–	–	–	–
CC[C@H]1OC(=O)[C@H](C)C(=O)[C@H](C)[C@@H](OC2O[C@H](C)C[C@H](N(C)C)[C@H]2O)[C@](C)(OC(=O)NC/C=C/c2cncc3ccccc23)C[C@@H](C)C(=O)C(C)C2CC(=O)O[C@@]21C (some centres unmarked) [Compound 30]	–	–	–	–	–	2 (≈ 2.48 µM)	0.12 (≈ 0.149 µM)	–	0.25 (≈ 0.309 µM)	16 (≈ 19.8 µM)
